The target in the test is T1, HEK cells stably transfected with tetracycline inducible hNR1 and hNR2A (Homo sapiens, UniProt Q05586+Q12879).
T1 construct: expressed in transfected cells; host or cells: HEK cells, stably transfected, tetracycline/doxycycline inducible
The test is described as follows: Assay 1: Cell-Based Assay, cytosolic calcium response to positive allosteric modulators (with 30 μM glycine and 300 nM L-glutamate, EC30). The following applies: for Max %: responses scaled relative to 100 μM L-glutamate maximal response (100%) and 0 μM L-glutamate (0%); for EC50: cytosolic calcium response, with 30 μM glycine and 300 nM L-glutamate (EC30), — = no plateau was reached. A digest of the protocol:
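Cells induced 24 h with 7.5 μg mL^−1 doxycycline plus 500 μM (+)-ketamine, loaded 60 min at 37 °C with calcium dye in Mg-free HBSS (1.8 mM Ca, probenecid, 10 μM (+)-ketamine, pH 7.15). Peak RFU over 5 min after compound addition, scaled to 100 μM L-glutamate (100%) and 0 μM (0%); four-parameter Hill fit for EC50, max % if no plateau.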

T1 sequence (Q12879 23-1464, other chains not shown): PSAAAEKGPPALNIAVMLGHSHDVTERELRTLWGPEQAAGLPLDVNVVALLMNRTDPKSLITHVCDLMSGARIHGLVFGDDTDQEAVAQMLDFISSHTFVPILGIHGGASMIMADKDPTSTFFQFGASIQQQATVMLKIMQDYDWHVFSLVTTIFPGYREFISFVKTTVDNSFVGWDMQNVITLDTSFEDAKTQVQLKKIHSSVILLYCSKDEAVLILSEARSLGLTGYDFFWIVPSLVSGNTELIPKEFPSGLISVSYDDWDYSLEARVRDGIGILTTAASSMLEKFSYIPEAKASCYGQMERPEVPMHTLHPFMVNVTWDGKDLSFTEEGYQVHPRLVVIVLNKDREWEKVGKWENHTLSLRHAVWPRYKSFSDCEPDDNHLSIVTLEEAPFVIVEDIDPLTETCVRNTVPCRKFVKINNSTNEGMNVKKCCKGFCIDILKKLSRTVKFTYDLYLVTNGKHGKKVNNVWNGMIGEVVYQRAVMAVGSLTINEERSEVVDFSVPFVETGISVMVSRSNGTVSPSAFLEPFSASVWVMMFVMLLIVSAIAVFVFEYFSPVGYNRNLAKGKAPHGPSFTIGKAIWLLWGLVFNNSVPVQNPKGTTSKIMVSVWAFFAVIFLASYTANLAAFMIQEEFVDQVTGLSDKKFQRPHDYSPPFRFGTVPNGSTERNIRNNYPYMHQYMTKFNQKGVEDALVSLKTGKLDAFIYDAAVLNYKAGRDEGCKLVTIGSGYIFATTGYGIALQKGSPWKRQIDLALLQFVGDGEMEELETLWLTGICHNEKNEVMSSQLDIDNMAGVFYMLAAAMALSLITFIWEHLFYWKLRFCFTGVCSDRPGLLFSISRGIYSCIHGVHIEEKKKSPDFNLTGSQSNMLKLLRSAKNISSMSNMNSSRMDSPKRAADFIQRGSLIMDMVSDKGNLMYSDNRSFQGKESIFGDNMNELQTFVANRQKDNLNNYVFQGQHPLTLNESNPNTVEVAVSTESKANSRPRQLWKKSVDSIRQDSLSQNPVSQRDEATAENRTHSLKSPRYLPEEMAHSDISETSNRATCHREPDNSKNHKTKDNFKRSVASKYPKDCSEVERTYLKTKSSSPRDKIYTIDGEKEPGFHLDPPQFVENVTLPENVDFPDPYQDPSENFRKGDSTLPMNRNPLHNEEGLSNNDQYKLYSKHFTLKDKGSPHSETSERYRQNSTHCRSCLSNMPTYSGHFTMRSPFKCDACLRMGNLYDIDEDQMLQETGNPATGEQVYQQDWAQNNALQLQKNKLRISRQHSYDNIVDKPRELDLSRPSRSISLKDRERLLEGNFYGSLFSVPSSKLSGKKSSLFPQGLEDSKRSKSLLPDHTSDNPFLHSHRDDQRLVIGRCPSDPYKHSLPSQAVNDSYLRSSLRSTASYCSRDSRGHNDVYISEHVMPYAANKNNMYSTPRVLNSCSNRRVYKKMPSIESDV

In the case of `CNC(=O)c1c(C)sc2nc(Cc3ccc(C)c(F)c3)cc(=O)n12` [Example 21.58, 7-[(3-fluoro-4-methyl-phenyl)methyl]-N,2-dimethyl-5-oxo-thiazolo[3,2-a]pyrimidine-3-carboxamide], the Max % (Table 2) is recorded as 46.1%.
On the same count and under the same terms, for `CNC(=O)c1c(C)sc2nc(Cc3ccc(F)cc3C(F)(F)F)cc(=O)n12` [Example 21.59, 7-[[4-fluoro-2-(trifluoromethyl)phenyl]methyl]-N,2-dimethyl-5-oxo-thiazolo[3,2-a]pyrimidine-3-carboxamide] the value was 42.5%.
`CNC(=O)c1c(C)sc2nc(Cc3ccc(F)cc3C3CC3)cc(=O)n12` [Example 21.60, 7-[(2-cyclopropyl-4-fluoro-phenyl)methyl]-N,2-dimethyl-5-oxo-thiazolo[3,2-a]pyrimidine-3-carboxamide]: the Max % (Table 2) stood at 78%.
The EC50 is the concentration that produces a half-maximal response. As for `CCNC(=O)c1c(C)sc2nc(Cc3cc(C#N)ccc3CCF)cc(=O)n12` [Example 21.61, 7-(5-cyano-2-(2-fluoroethyl)benzyl)-N-ethyl-2-methyl-5-oxo-5H-thiazolo[3,2-a]pyrimidine-3-carboxamide], where the note is “Table 2”, the EC50 stood at 33.1 µM and the Max % amounted to 131%.
With `CCNC(=O)c1c(C)sc2nc(Cc3cccc(C#N)c3Cl)cc(=O)n12` [Example 21.62, 7-(2-chloro-3-cyanobenzyl)-N-ethyl-2-methyl-5-oxo-5H-thiazolo[3,2-a]pyrimidine-3-carboxamide], the Max % (Table 2) came out at 45.6%.
On the same count and under the same terms, next, `CCNC(=O)c1c(C)sc2nc(Cc3c(CC)ccc(F)c3F)cc(=O)n12` [Example 21.63, N-ethyl-7-(6-ethyl-2,3-difluorobenzyl)-2-methyl-5-oxo-5H-thiazolo[3,2-a]pyrimidine-3-carboxamide]: 124%.
Consider `CCNC(=O)c1c(C)sc2nc(Cc3cc(C#N)ccc3CC)cc(=O)n12` [Example 21.64, 7-(5-cyano-2-ethylbenzyl)-N-ethyl-2-methyl-5-oxo-5H-thiazolo[3,2-a]pyrimidine-3-carboxamide], for which the Max % (Table 2) is recorded as 120%.
`CCNC(=O)c1c(C)sc2nc(Cc3cc(F)ccc3C3CC3)cc(=O)n12` [Example 21.65, 7-(2-cyclopropyl-5-fluorobenzyl)-N-ethyl-2-methyl-5-oxo-5H-thiazolo[3,2-a]pyrimidine-3-carboxamide]: under “Table 2”, the Max % came out at 96.3%.
Regarding `CCNC(=O)c1c(C)sc2nc(Cc3cc(C#N)ccc3C3CC3)cc(=O)n12` [Example 21.66, 7-(5-cyano-2-cyclopropylbenzyl)-N-ethyl-2-methyl-5-oxo-5H-thiazolo[3,2-a]pyrimidine-3-carboxamide], the Max % (Table 2) is recorded as 92.4%.
Same read-out and setting: next, `CCCc1ccc(F)cc1Cc1cc(=O)n2c(C(=O)NCC)c(C)sc2n1` [Example 21.67, N-ethyl-7-(5-fluoro-2-propylbenzyl)-2-methyl-5-oxo-5H-thiazolo[3,2-a]pyrimidine-3-carboxamide]: 75%.
Turning to `CNC(=O)c1c(C)sc2nc(Cc3cccc(CF)c3F)cc(=O)n12` [Example 21.68, 7-[[2-fluoro-3-(fluoromethyl)phenyl]methyl]-N,2-dimethyl-5-oxo-thiazolo[3,2-a]pyrimidine-3-carboxamide], for the setting “Table 2”, the concentration giving a half-maximal response (EC50) was determined as 4.2 µM and the Max % is given as 111%.
Consider `CCNC(=O)c1c(C)sc2nc(C(C)c3cccc(C(F)(F)F)c3F)cc(=O)n12` (stereo not drawn) [Example 22.1, N-ethyl-7-(1-(2-fluoro-3-(trifluoromethyl)phenyl)ethyl)-2-methyl-5-oxo-5H-thiazolo[3,2-a]pyrimidine-3-carboxamide], for which the Max % (Table 2) was found to be 96.9%.
The same measure, in the same setting: for `CCN(C)C(=O)c1c(C)sc2nc(Cc3cccc(C(F)(F)F)c3F)cc(=O)n12` [Example 22.2, N-ethyl-7-(2-fluoro-3-(trifluoromethyl)benzyl)-N,2-dimethyl-5-oxo-5H-thiazolo[3,2-a]pyrimidine-3-carboxamide] the value was 41.4%.
As to `Cc1sc2nc(Cc3cccc(C#N)c3)cc(=O)n2c1C1CC1C#N` (stereo not drawn) [Example 23.1, 3-((3-(2-cyanocyclopropyl)-2-methyl-5-oxo-5H-thiazolo[3,2-a]pyrimidin-7-yl)methyl)benzonitrile], the EC50 (Table 2) amounted to 18.1 µM.
Still for that read-out and setting: next, `Cc1sc2nc(Cc3cccc(C#N)c3F)cc(=O)n2c1C1CC1C#N` (stereo not drawn) [Example 23.2, 3-((3-(2-cyanocyclopropyl)-2-methyl-5-oxo-5H-thiazolo[3,2-a]pyrimidin-7-yl)methyl)-2-fluorobenzonitrile]: 2.6 µM.
As to `Cc1sc2nc(Cc3cccc(C#N)n3)cc(=O)n2c1C1CC1C#N` (stereo not drawn) [Example 23.3, 6-((3-(2-cyanocyclopropyl)-2-methyl-5-oxo-5H-thiazolo[3,2-a]pyrimidin-7-yl)methyl)picolinonitrile], where the note is “Table 2”, the EC50 amounted to 14.8 µM and the Max % stood at 133%.
For the compound `Cc1sc2nc(Cc3cccc(C#N)c3F)cc(=O)n2c1C1CC1` [Example 24.4, 3-((3-cyclopropyl-2-methyl-5-oxo-5H-thiazolo[3,2-a]pyrimidin-7-yl)methyl)-2-fluorobenzonitrile], the 50% effective concentration (EC50) (Table 2) was determined as 15.3 µM.
The same measure, in the same setting: next, `Cc1sc2nc(Cc3cccc(C#N)c3F)cc(=O)n2c1-c1ccco1` [Example 24.8, 2-fluoro-3-((3-(furan-2-yl)-2-methyl-5-oxo-5H-thiazolo[3,2-a]pyrimidin-7-yl)methyl)benzonitrile]: 8.9 µM; `Cc1sc2nc(Cc3cccc(C#N)c3F)cc(=O)n2c1C(=O)NCC(F)(F)F` [Example 25.1, 7-(3-cyano-2-fluorobenzyl)-2-methyl-5-oxo-N-(2,2,2-trifluoroethyl)-5H-thiazolo[3,2-a]pyrimidine-3-carboxamide]: 18.7 µM; `Cc1sc2nc(Cc3cccc(C(F)(F)F)c3F)cc(=O)n2c1C(=O)NCC#N` [Example 25.2, N-(cyanomethyl)-7-(2-fluoro-3-(trifluoromethyl)benzyl)-2-methyl-5-oxo-5H-thiazolo[3,2-a]pyrimidine-3-carboxamide]: 15.2 µM.
Still for that read-out and setting: next, `Cc1sc2nc(Cc3cccc(C(F)(F)F)c3F)cc(=O)n2c1C#N` [Example 26.2, 7-(2-fluoro-3-(trifluoromethyl)benzyl)-2-methyl-5-oxo-5H-thiazolo[3,2-a]pyrimidine-3-carbonitrile]: 9 µM.
On the same count and under the same terms, for `O=c1cc(Cn2nc(C(F)(F)F)cc2C2CC2)nc2sc3c(n12)CCC3` [Example 27.5, 10-{[5-cyclopropyl-3-(trifluoromethyl)-1H-pyrazol-1-yl]methyl}-7-thia-1,9-diazatricyclo[6.4.0.0^{2,6}]dodeca-2(6),8,10-trien-12-one] the value was 30.4 µM.
Consider `CC1(C)CCc2sc3nc(Cn4nc(C(F)(F)F)cc4C4CC4)cc(=O)n3c21` [Example 27.7, 10-{[5-cyclopropyl-3-(trifluoromethyl)-1H-pyrazol-1-yl]methyl}-3,3-dimethyl-7-thia-1,9-diazatricyclo[6.4.0.0^{2,6}]dodeca-2(6),8,10-trien-12-one], for which, for the setting “Table 2”, the EC50 was 26.5 µM.
Regarding `CC1(C)CCc2sc3nc(Cn4nc(C5CC5)cc4C(F)(F)F)cc(=O)n3c21` [Example 27.8, 10-{[3-cyclopropyl-5-(trifluoromethyl)-1H-pyrazol-1-yl]methyl}-3,3-dimethyl-7-thia-1,9-diazatricyclo[6.4.0.0^{2,6}]dodeca-2(6),8,10-trien-12-one], under “Table 2”, the EC50 was determined as 30.4 µM.
On the same count and under the same terms, for `CC(=O)c1c(C)sc2nc(Cc3cccc(C#N)c3F)cc(=O)n12` [Example 27.10, 3-((3-acetyl-2-methyl-5-oxo-5H-thiazolo[3,2-a]pyrimidin-7-yl)methyl)-2-fluorobenzonitrile] the value was 29.1 µM; for `Cc1sc2nc(Cc3cccc(C(F)(F)F)c3F)cc(=O)n2c1CO` [Example 27.14, 7-(2-fluoro-3-(trifluoromethyl)benzyl)-3-(hydroxymethyl)-2-methyl-5H-thiazolo[3,2-a]pyrimidin-5-one], 44.5 µM.
Turning to `Cc1sc2nc(Cn3nc(C(F)(F)F)cc3Cl)cc(=O)n2c1C(C)C#N` (stereo not drawn) [Example 251A], the EC50 (Table 3) was 2.62 µM.
For `CNC(=O)c1c(C)sc2nc(Cc3cccc(C4CC4)c3F)cc(=O)n12` [compound 1, 7-[(3-cyclopropyl-2-fluoro-phenyl)methyl]-N,2-dimethyl-5-oxo-thiazolo[3,2-a]pyrimidine-3-carboxamide], the EC50 (Table 3) came to 0.932 µM.
On the same count and under the same terms, for `CCNC(=O)c1c(C)sc2nc(Cc3c(F)ccc(F)c3F)cc(=O)n12` [compound 2, N-ethyl-2-methyl-5-oxo-7-[(2,3,6-trifluorophenyl)methyl]thiazolo[3,2-a]pyrimidine-3-carboxamide] the value was 33.7 µM.
Still for that read-out and setting: next, `Cc1sc2nc(Cc3cccc(C#N)c3F)cc(=O)n2c1-c1ncco1` [compound 3, 2-fluoro-3-[(2-methyl-3-oxazol-2-yl-5-oxo-thiazolo[3,2-a]pyrimidin-7-yl)methyl]benzonitrile]: 10.9 µM; `CCNC(=O)c1c(C)sc2nc(Cc3cc(C#N)cc(C4CC4)c3F)cc(=O)n12` [compound 4, 7-[(5-cyano-3-cyclopropyl-2-fluoro-phenyl)methyl]-N-ethyl-2-methyl-5-oxo-thiazolo[3,2-a]pyrimidine-3-carboxamide]: 3.88 µM; `CCNC(=O)c1c(C)sc2nc(Cc3cccc(OC)c3F)cc(=O)n12` [compound 5, N-ethyl-7-[(2-fluoro-3-methoxy-phenyl)methyl]-2-methyl-5-oxo-thiazolo[3,2-a]pyrimidine-3-carboxamide]: 15.1 µM.
Still for that read-out and setting: for `CNC(=O)c1c(C)sc2nc(Cc3cccc(C4CC4)c3F)c(F)c(=O)n12` [compound 6, 7-[(3-cyclopropyl-2-fluoro-phenyl)methyl]-6-fluoro-N,2-dimethyl-5-oxo-thiazolo[3,2-a]pyrimidine-3-carboxamide] the value was 0.753 µM.

The record behind these values is patent publication US9988400B2 (Genentech, Inc., priority 2013, dated 2018).
